Data reported in DBAASP.
Converted amounts (≈) assume the structure as drawn.

What was measured:
Test in all cases: ≥ marks a high value that may be exact or a test limit, other limits are often not marked, values filed in µg/mL are converted to µM
[1] = tested on: Escherichia coli ATCC 11775
[2] = tested on: Staphylococcus aureus ATCC 12600
[3] = tested on: Pseudomonas aeruginosa Ps4
[4] = tested on: Candida albicans ATCC 10231
[5] = tested on: Cryptococcus neoformans ATCC 32045
[6] = tested on: Escherichia coli ATCC 2592
[7] = tested on: Pseudomonas aeruginosa ATCC 10145
[8] = tested on: Staphylococcus aureus ATCC 33591
[9] = tested on: Escherichia coli JW0013

## CC[C@H](C)[C@H](N)C(=O)N[C@H](C(=O)N1CCC[C@H]1C(=O)N[C@@H](CC(C)C)C(=O)N1CCC[C@H]1C(=O)N[C@@H](CC(C)C)C(=O)NCC(=O)N[C@@H](Cc1ccc(O)cc1)C(=O)N[C@@H](Cc1ccccc1)C(=O)N[C@@H](C)C(=O)N[C@@H](CCCCN)C(=O)N[C@@H](CCCCN)C(=O)N[C@H](C(=O)O)[C@@H](C)O)[C@@H](C)CC [IIPLPLGYFAKKT]
[1]
  MIC: 3 µM (≈ 4.38 µg/mL)
[2]
  MIC: 6 µM (≈ 8.76 µg/mL)

## CC[C@H](C)[C@H](NC(=O)[C@H](CC(N)=O)NC(=O)[C@H](CCCN=C(N)N)NC(=O)[C@H](CCC(N)=O)NC(=O)[C@H](Cc1c[nH]c2ccccc12)NC(=O)[C@H](CCCN=C(N)N)NC(=O)[C@@H](N)CCCN=C(N)N)C(=O)N[C@@H](CCCN=C(N)N)C(=O)N[C@@H](CCCCN)C(=O)N[C@H](C(=O)N[C@@H](CCCN=C(N)N)C(=O)N[C@@H](CCCN=C(N)N)C(N)=O)C(C)C [RRWQRNIRKVRR]
[3]
  MIC: ≥ 145 µM

## CC[C@H](C)[C@H](NC(=O)[C@H](CC(N)=O)NC(=O)[C@H](CCCN=C(N)N)NC(=O)[C@@H](NC(=O)[C@H](Cc1c[nH]c2ccccc12)NC(=O)[C@@H](N)Cc1ccccc1)C(C)C)C(=O)N[C@@H](CCCN=C(N)N)C(=O)N[C@@H](CCCCN)C(=O)N[C@H](C(=O)N[C@@H](CCCN=C(N)N)C(N)=O)C(C)C [FWVRNIRKVR]
[3]
  MIC: ≥ 250 µM

## NCCCC[C@H](NC(=O)[C@H](Cc1ccccc1)NC(=O)[C@H](CCCCN)NC(=O)[C@H](CCCCN)NC(=O)[C@H](Cc1ccccc1)NC(=O)[C@H](CCCCN)NC(=O)[C@H](CCCCN)NC(=O)[C@H](Cc1ccccc1)NC(=O)[C@H](CCCCN)NC(=O)[C@H](CCCCN)NC(=O)[C@H](Cc1ccccc1)NC(=O)[C@H](CCCCN)NC(=O)[C@H](CCCCN)NC(=O)[C@H](Cc1ccccc1)NC(=O)[C@H](CCCCN)NC(=O)[C@H](CCCCN)NC(=O)[C@H](Cc1ccccc1)NC(=O)[C@@H](N)CCCCN)C(=O)O [KFKKFKKFKKFKKFKKFK]
[4]
  MIC: 145 µM (≈ 354 µg/mL)
[5]
  MIC: 20.4 µM (≈ 49.8 µg/mL)
[6]
  MIC: ≥ 36.1 µM
[7]
  MIC: ≥ 51.2 µM
[8]
  MIC: ≥ 205 µM

## CC(C)C[C@H](NC(=O)[C@H](CCCCN)NC(=O)[C@H](CC(C)C)NC(=O)[C@H](CCCCN)NC(=O)[C@H](CC(C)C)NC(=O)[C@H](CCCCN)NC(=O)[C@H](CC(C)C)NC(=O)[C@H](CCCCN)NC(=O)[C@H](CC(C)C)NC(=O)[C@H](CCCCN)NC(=O)[C@H](CC(C)C)NC(=O)[C@H](CCCCN)NC(=O)[C@H](CC(C)C)NC(=O)[C@H](CCCCN)NC(=O)[C@H](CC(C)C)NC(=O)[C@H](CCCCN)NC(=O)[C@H](CC(C)C)NC(=O)[C@H](CCCCN)NC(=O)[C@@H](N)CC(C)C)C(=O)N[C@@H](CCCCN)C(=O)O [LKLKLKLKLKLKLKLKLKLK]
[4]
  MIC: 145 µM (≈ 354 µg/mL)
[5]
  MIC: ≥ 36.2 µM
[6]
  MIC: ≥ 79.6 µM
[7]
  MIC: ≥ 51.4 µM
[8]
  MIC: ≥ 72.7 µM

## CC[C@H](C)[C@H](NC(=O)[C@H](CC(N)=O)NC(=O)[C@H](CCCN=C(N)N)NC(=O)[C@H](CCC(N)=O)NC(=O)[C@H](Cc1c[nH]c2ccccc12)NC(=O)[C@@H](N)Cc1ccccc1)C(=O)N[C@@H](CCCN=C(N)N)C(=O)N[C@H](C(=O)N[C@@H](CCCN=C(N)N)C(N)=O)C(C)C [FWQRNIRVR]
[3]
  MIC: ≥ 196 µM

## CC(C)C[C@H](NC(=O)[C@H](C)NC(=O)[C@H](CC(C)C)NC(=O)[C@H](C)NC(=O)[C@H](CC(C)C)NC(=O)[C@H](C)NC(=O)[C@H](CC(C)C)NC(=O)[C@H](C)NC(=O)[C@H](CC(C)C)NC(=O)[C@H](C)NC(=O)[C@H](CC(C)C)NC(=O)[C@H](C)NC(=O)[C@H](CC(C)C)NC(=O)[C@H](C)NC(=O)[C@H](CC(C)C)NC(=O)[C@H](C)NC(=O)[C@H](CC(C)C)NC(=O)[C@H](C)NC(=O)[C@H](CC(C)C)NC(=O)[C@H](C)NC(=O)[C@@H](N)CC(C)C)C(=O)N[C@@H](C)C(=O)O [LALALALALALALALALALALA]
[4]
  MIC: > 245 µM
[5]
  MIC: ≥ 43.1 µM
[6]
  MIC: ≥ 86.5 µM
[7]
  MIC: ≥ 122 µM
[8]
  MIC: ≥ 86.5 µM

## CC[C@H](C)[C@H](NC(=O)[C@H](CC(N)=O)NC(=O)[C@H](CCCN=C(N)N)NC(=O)[C@@H](NC(=O)[C@H](Cc1c[nH]c2ccccc12)NC(=O)[C@@H](N)Cc1ccccc1)[C@@H](C)CC)C(=O)N[C@@H](CCCN=C(N)N)C(=O)N[C@@H](CCCCN)C(=O)N[C@H](C(=O)N[C@@H](CCCN=C(N)N)C(N)=O)C(C)C [FWIRNIRKVR]
[3]
  MIC: ≥ 180 µM

## C[C@H](NC(=O)[C@H](C)NC(=O)[C@H](CCCCN)NC(=O)[C@H](CCCCN)NC(=O)[C@H](C)NC(=O)[C@H](C)NC(=O)[C@H](CCCCN)NC(=O)[C@H](CCCCN)NC(=O)[C@H](C)NC(=O)[C@H](C)NC(=O)[C@H](CCCCN)NC(=O)[C@H](CCCCN)NC(=O)[C@H](C)NC(=O)[C@H](C)NC(=O)[C@H](CCCCN)NC(=O)[C@H](CCCCN)NC(=O)[C@H](C)NC(=O)[C@H](C)NC(=O)[C@H](CCCCN)NC(=O)[C@H](CCCCN)NC(=O)[C@H](C)NC(=O)[C@H](C)NC(=O)[C@H](CCCCN)NC(=O)[C@H](CCCCN)NC(=O)[C@H](C)NC(=O)[C@H](C)NC(=O)[C@@H](N)CCCCN)C(=O)N[C@@H](CCCCN)C(=O)O [KAAKKAAKKAAKKAAKKAAKKAAKKAAK]
[4]
  MIC: > 178 µM
[5]
  MIC: 31.4 µM (≈ 88 µg/mL)
[6]
  MIC: ≥ 178 µM
[7]
  MIC: ≥ 89 µM
[8]
  MIC: ≥ 178 µM

## C[C@H](NC(=O)[C@H](Cc1ccccc1)NC(=O)[C@H](CCCCN)NC(=O)[C@H](CCCCN)NC(=O)[C@H](C)NC(=O)[C@H](Cc1ccccc1)NC(=O)[C@H](CCCCN)NC(=O)[C@H](CCCCN)NC(=O)[C@H](C)NC(=O)[C@H](Cc1ccccc1)NC(=O)[C@H](CCCCN)NC(=O)[C@H](CCCCN)NC(=O)[C@H](C)NC(=O)[C@H](Cc1ccccc1)NC(=O)[C@H](CCCCN)NC(=O)[C@H](CCCCN)NC(=O)[C@H](C)NC(=O)[C@H](Cc1ccccc1)NC(=O)[C@H](CCCCN)NC(=O)[C@H](CCCCN)NC(=O)[C@H](C)NC(=O)[C@H](Cc1ccccc1)NC(=O)[C@H](CCCCN)NC(=O)[C@@H](N)CCCCN)C(=O)O [KKFAKKFAKKFAKKFAKKFAKKFA]
[4]
  MIC: 61.7 µM (≈ 177 µg/mL)
[5]
  MIC: 15.5 µM (≈ 44.5 µg/mL)
[6]
  MIC: 7.9 µM (≈ 22.6 µg/mL)
[7]
  MIC: 21.6 µM (≈ 62 µg/mL)
[8]
  MIC: ≥ 87.2 µM

## CC[C@H](C)[C@H](NC(=O)[C@H](CCCN=C(N)N)NC(=O)[C@H](CCCN=C(N)N)NC(=O)[C@@H]1CCCN1C(=O)[C@@H]1CCCN1C(=O)[C@H](CCCN=C(N)N)NC(=O)[C@@H]1CCCN1C(=O)[C@H](CCCN=C(N)N)NC(=O)[C@@H]1CCCN1C(=O)[C@H](CC(C)C)NC(=O)[C@H](Cc1ccc(O)cc1)NC(=O)[C@@H]1CCCN1C(=O)[C@@H]1CCCN1C(=O)[C@H](CCCCN)NC(=O)[C@H](Cc1ccc(O)cc1)NC(=O)[C@@H](N)C(C)C)C(=O)N[C@@H](Cc1ccc(O)cc1)C(=O)N[C@@H](CC(N)=O)C(=O)N[C@@H](CCCN=C(N)N)C(N)=O [VYKPPYLPRPRPPRRIYNR]
[9]
  MIC: 1.97 µM (≈ 4.8 µg/mL)

## CC(C)C[C@H](NC(=O)[C@H](CCCCN)NC(=O)[C@H](CC(C)C)NC(=O)[C@H](CCCCN)NC(=O)[C@H](CC(C)C)NC(=O)[C@H](CCCCN)NC(=O)[C@H](CC(C)C)NC(=O)[C@H](CCCCN)NC(=O)[C@H](CC(C)C)NC(=O)[C@H](CCCCN)NC(=O)[C@H](CC(C)C)NC(=O)[C@H](CCCCN)NC(=O)[C@H](CC(C)C)NC(=O)[C@H](CCCCN)NC(=O)[C@H](CC(C)C)NC(=O)[C@H](CCCCN)NC(=O)[C@@H](N)CC(C)C)C(=O)N[C@@H](CCCCN)C(=O)O [LKLKLKLKLKLKLKLKLK]
[4]
  MIC: 161 µM (≈ 354 µg/mL)
[5]
  MIC: 20.3 µM (≈ 44.5 µg/mL)
[6]
  MIC: ≥ 40.2 µM
[7]
  MIC: ≥ 36.5 µM
[8]
  MIC: ≥ 161 µM

## CC[C@H](C)[C@H](NC(=O)[C@H](CC(N)=O)NC(=O)[C@H](CCCN=C(N)N)NC(=O)[C@H](CCC(N)=O)NC(=O)[C@H](Cc1c[nH]c2ccccc12)NC(=O)[C@@H](N)CCCN=C(N)N)C(=O)N[C@@H](CCCN=C(N)N)C(=O)N[C@@H](CCCCN)C(=O)N[C@H](C(=O)N[C@@H](CCCN=C(N)N)C(=O)N[C@@H](CCCN=C(N)N)C(N)=O)C(C)C [RWQRNIRKVRR]
[3]
  MIC: ≥ 159 µM

## CC[C@H](C)[C@H](NC(=O)[C@H](CCCN=C(N)N)NC(=O)[C@H](CCCN=C(N)N)NC(=O)[C@H](CCCN=C(N)N)NC(=O)[C@@H](NC(=O)[C@H](CCCCN)NC(=O)[C@H](CCCN=C(N)N)NC(=O)[C@@H](NC(=O)[C@H](CC(N)=O)NC(=O)[C@H](CCCN=C(N)N)NC(=O)[C@H](CCC(N)=O)NC(=O)[C@H](Cc1c[nH]c2ccccc12)NC(=O)[C@@H](N)Cc1ccccc1)[C@@H](C)CC)C(C)C)C(N)=O [FWQRNIRKVRRRI]
[3]
  MIC: ≥ 137 µM

## CC[C@H](C)[C@H](NC(=O)[C@H](CC(N)=O)NC(=O)[C@H](CCCN=C(N)N)NC(=O)[C@H](CCC(N)=O)NC(=O)[C@H](Cc1c[nH]c2ccccc12)NC(=O)[C@H](Cc1ccccc1)NC(=O)[C@@H](N)CS)C(=O)N[C@@H](CCCN=C(N)N)C(=O)N[C@@H](CCCCN)C(=O)N[C@H](C(=O)N[C@@H](CS)C(=O)N[C@@H](CCCN=C(N)N)C(N)=O)C(C)C [CFWQRNIRKVCR]
[3]
  MIC: ≥ 155 µM

## CC(C)C[C@H](NC(=O)[C@H](CCCCN)NC(=O)[C@H](CC(C)C)NC(=O)[C@H](CCCCN)NC(=O)[C@H](CC(C)C)NC(=O)[C@H](CCCCN)NC(=O)[C@H](CC(C)C)NC(=O)[C@H](CCCCN)NC(=O)[C@H](CC(C)C)NC(=O)[C@H](CCCCN)NC(=O)[C@H](CC(C)C)NC(=O)[C@H](CCCCN)NC(=O)[C@H](CC(C)C)NC(=O)[C@H](CCCCN)NC(=O)[C@@H](N)CC(C)C)C(=O)N[C@@H](CCCCN)C(=O)O [LKLKLKLKLKLKLKLK]
[4]
  MIC: 181 µM (≈ 354 µg/mL)
[5]
  MIC: 23 µM (≈ 44.9 µg/mL)
[6]
  MIC: ≥ 64.1 µM
[7]
  MIC: ≥ 66.7 µM
[8]
  MIC: ≥ 90.7 µM
